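Protocol summary: plate cells (96-well), add compound at 5 concentrations, incubate 48 h, interpolate endpoints linearly. The concentration for full growth arrest is given as TGI.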
How the values were obtained:
Assay in all cases: NCI-60 cell line screen, 48 h
[1] = test system: UO-31 renal
[2] = test system: ACHN renal
[3] = test system: LOX IMVI melanoma
[4] = test system: CCRF-CEM leukemia
[5] = test system: SNB-19 CNS
[6] = test system: HCT-15 colon
[7] = test system: CAKI-1 renal
[8] = test system: MDA-MB-435
[9] = test system: EKVX NSCLC
[10] = test system: HS 578T breast
[11] = test system: SR leukemia
[12] = test system: SK-MEL-28 melanoma
[13] = test system: NCI/ADR-RES ovarian
[14] = test system: NCI-H226 lung
[15] = test system: NCI-H522 lung
[16] = test system: UACC-62 melanoma
[17] = test system: MDA-MB-231 breast
[18] = test system: NCI-H23 lung
[19] = test system: UACC-257 melanoma
[20] = test system: SK-MEL-5 melanoma
[21] = test system: HCT-116 colon
[22] = test system: MOLT-4 leukemia
[23] = test system: TK-10 renal
[24] = test system: MALME-3M melanoma
[25] = test system: M14 melanoma
[26] = test system: BT-549 breast
[27] = test system: K-562 leukemia
[28] = test system: COLO 205 colon
[29] = test system: SF-268 CNS
[30] = test system: SN12C renal
[31] = test system: SW-620 colon
[32] = test system: A549 NSCLC
[33] = test system: DU-145 prostate
[34] = test system: OVCAR-8 ovarian
[35] = test system: HOP-62 NSCLC
[36] = test system: SNB-75 CNS
[37] = test system: OVCAR-3 ovarian
[38] = test system: SF-539 CNS
[39] = test system: OVCAR-5 ovarian
[40] = test system: SK-OV-3 ovarian
[41] = test system: HT29 colon
[42] = test system: PC-3 prostate
[43] = test system: HOP-92 NSCLC
[44] = test system: RPMI-8226 leukemia
[45] = test system: SF-295 CNS
[46] = test system: SK-MEL-2 melanoma
[47] = test system: KM12 colon
[48] = test system: T-47D breast
[49] = test system: MDA-N
[50] = test system: NCI-H460 lung
[51] = test system: RXF 393 renal
[52] = test system: IGROV1 ovarian
[53] = test system: 786-0 renal
[54] = test system: HCC-2998 colon
[55] = test system: MCF7 breast
[56] = test system: A498 renal
[57] = test system: U251 CNS
[58] = test system: OVCAR-4 ovarian
[59] = test system: HL-60(TB) leukemia

## OC1c2c(ccc3c2CCC3)CC12Cc1ccccc1C2 (stereo unspecified)
[1]
  TGI: 27.4 µM
[2]
  TGI: 32.7 µM
[3]
  TGI: 29.4 µM
[4]
  TGI: 83.1 µM
[5]
  TGI: 32.9 µM
[6]
  TGI: 30.2 µM
[7]
  TGI: 33.4 µM
[8]
  TGI: 29.5 µM
[9]
  TGI: 31.4 µM
[10]
  TGI: 35.5 µM
[11]
  TGI: 44.6 µM
[12]
  TGI: 30.5 µM
[13]
  TGI: 35.4 µM
[14]
  TGI: 26.6 µM
[15]
  TGI: 30.3 µM
[16]
  TGI: 29.4 µM
[17]
  TGI: 29.4 µM
[18]
  TGI: 30.9 µM
[19]
  TGI: 27.4 µM
[20]
  TGI: 29.3 µM
[21]
  TGI: 29.7 µM
[22]
  TGI: > 100 µM
[23]
  TGI: 28 µM
[24]
  TGI: 25.2 µM
[25]
  TGI: 28.8 µM
[26]
  TGI: 31.6 µM
[27]
  TGI: 54.9 µM
[28]
  TGI: 31.9 µM
[29]
  TGI: 29.4 µM
[30]
  TGI: 28.8 µM
[31]
  TGI: 32.8 µM
[32]
  TGI: 34.5 µM
[33]
  TGI: 31.2 µM
[34]
  TGI: 33.7 µM
[35]
  TGI: 30.1 µM
[36]
  TGI: 35.6 µM
[37]
  TGI: 26.5 µM
[38]
  TGI: 35.8 µM
[39]
  TGI: 31.3 µM
[40]
  TGI: 32.9 µM
[41]
  TGI: 31.3 µM
[42]
  TGI: 30.3 µM
[43]
  TGI: 25.8 µM
[44]
  TGI: 50.8 µM
[45]
  TGI: 31.9 µM
[46]
  TGI: 28.8 µM
[47]
  TGI: 29.7 µM
[48]
  TGI: 53.5 µM
[49]
  TGI: 28.8 µM
[50]
  TGI: 33 µM
[51]
  TGI: 27.2 µM
[52]
  TGI: 47.5 µM
[53]
  TGI: 30.9 µM
[54]
  TGI: 27.5 µM
[55]
  TGI: 32.8 µM
[56]
  TGI: 30.2 µM
[57]
  TGI: 29.7 µM
[58]
  TGI: 38.3 µM
[59]
  TGI: 44.7 µM

## N#CC12CC3=C(N=C1NC1=C(CCc4ccccc41)C2)c1ccccc1CC3 (stereo unspecified)
[1]
  TGI: 35.1 µM
[2]
  TGI: > 100 µM
[3]
  TGI: 13.9 µM
[4]
  TGI: 3.38 µM
[5]
  TGI: 73.5 µM
[6]
  TGI: 51 µM
[7]
  TGI: 77.2 µM
[8]
  TGI: 0.923 µM
[9]
  TGI: > 100 µM
[10]
  TGI: > 34.5 µM
[11]
  TGI: 0.694 µM
[12]
  TGI: 44.3 µM
[13]
  TGI: 29.5 µM
[14]
  TGI: 29.7 µM
[15]
  TGI: 6.47 µM
[16]
  TGI: 42.6 µM
[17]
  TGI: > 57.5 µM
[18]
  TGI: 39.2 µM
[19]
  TGI: > 84.4 µM
[20]
  TGI: > 35.5 µM
[21]
  TGI: 21.7 µM
[22]
  TGI: 7 µM
[23]
  TGI: 65.8 µM
[24]
  TGI: 37.1 µM
[25]
  TGI: 17.6 µM
[26]
  TGI: 65.3 µM
[27]
  TGI: 1.36 µM
[28]
  TGI: 5.55 µM
[29]
  TGI: > 86.4 µM
[30]
  TGI: > 81.9 µM
[31]
  TGI: > 42.4 µM
[32]
  TGI: > 100 µM
[33]
  TGI: > 85.1 µM
[34]
  TGI: 15.7 µM
[35]
  TGI: 53 µM
[36]
  TGI: 11 µM
[37]
  TGI: 8.13 µM
[38]
  TGI: 7.22 µM
[39]
  TGI: > 100 µM
[40]
  TGI: 27.6 µM
[41]
  TGI: 6.52 µM
[42]
  TGI: > 54.5 µM
[43]
  TGI: 41.4 µM
[44]
  TGI: 4.15 µM
[45]
  TGI: 12 µM
[46]
  TGI: 23.6 µM
[47]
  TGI: 20.4 µM
[48]
  TGI: > 96 µM
[49]
  TGI: 0.809 µM
[50]
  TGI: > 100 µM
[51]
  TGI: > 100 µM
[52]
  TGI: > 40.3 µM
[53]
  TGI: 43.8 µM
[54]
  TGI: 4.35 µM
[55]
  TGI: > 38.3 µM
[56]
  TGI: 7.97 µM
[57]
  TGI: 17.1 µM
[58]
  TGI: > 78.6 µM
[59]
  TGI: 1.15 µM

## O=c1ssc2c1Nc1c(ssc1=O)S2
[1]
  TGI: 24.4 µM
[2]
  TGI: 30.2 µM
[3]
  TGI: 24.3 µM
[4]
  TGI: 6.8 µM
[5]
  TGI: 34.7 µM
[6]
  TGI: 41.3 µM
[7]
  TGI: 33.3 µM
[8]
  TGI: 33.5 µM
[9]
  TGI: 30 µM
[10]
  TGI: > 100 µM
[11]
  TGI: 5.49 µM
[12]
  TGI: 34.2 µM
[13]
  TGI: 37.4 µM
[14]
  TGI: 46.5 µM
[15]
  TGI: 37.4 µM
[16]
  TGI: 27.3 µM
[17]
  TGI: 57.3 µM
[18]
  TGI: 35.3 µM
[19]
  TGI: 28.3 µM
[20]
  TGI: 29.4 µM
[21]
  TGI: 31.2 µM
[22]
  TGI: 28.4 µM
[23]
  TGI: 29.5 µM
[24]
  TGI: 22.4 µM
[25]
  TGI: 27.2 µM
[26]
  TGI: 52.5 µM
[27]
  TGI: 25.2 µM
[28]
  TGI: 36.4 µM
[29]
  TGI: 33.5 µM
[30]
  TGI: 28.1 µM
[31]
  TGI: 31.1 µM
[32]
  TGI: 41 µM
[33]
  TGI: 26.2 µM
[34]
  TGI: 28.6 µM
[35]
  TGI: 36.4 µM
[36]
  TGI: 30.2 µM
[37]
  TGI: 32.4 µM
[38]
  TGI: 21.5 µM
[39]
  TGI: 32.4 µM
[40]
  TGI: 36.3 µM
[41]
  TGI: 73.8 µM
[42]
  TGI: 25.5 µM
[43]
  TGI: 28.7 µM
[44]
  TGI: 21.1 µM
[45]
  TGI: 74.7 µM
[46]
  TGI: 32.1 µM
[47]
  TGI: 28.6 µM
[48]
  TGI: 26.2 µM
[49]
  TGI: 31.9 µM
[50]
  TGI: 36.4 µM
[51]
  TGI: 17.4 µM
[52]
  TGI: 26.4 µM
[53]
  TGI: 14.5 µM
[54]
  TGI: 29.4 µM
[55]
  TGI: 39.2 µM
[56]
  TGI: 24.7 µM
[57]
  TGI: 33.3 µM
[58]
  TGI: 28.2 µM
[59]
  TGI: 15.5 µM

## O=C(O)CCc1ccc(-c2ccccc2)[nH]1
[1]
  TGI: > 100 µM
[2]
  TGI: > 100 µM
[3]
  TGI: > 100 µM
[4]
  TGI: > 100 µM
[5]
  TGI: > 100 µM
[6]
  TGI: > 100 µM
[7]
  TGI: > 100 µM
[8]
  TGI: > 100 µM
[9]
  TGI: > 100 µM
[10]
  TGI: > 100 µM
[11]
  TGI: > 100 µM
[12]
  TGI: > 100 µM
[13]
  TGI: > 100 µM
[14]
  TGI: > 100 µM
[15]
  TGI: > 100 µM
[16]
  TGI: > 100 µM
[17]
  TGI: > 100 µM
[18]
  TGI: > 100 µM
[19]
  TGI: > 100 µM
[20]
  TGI: > 100 µM
[21]
  TGI: > 100 µM
[22]
  TGI: > 100 µM
[23]
  TGI: > 100 µM
[24]
  TGI: > 100 µM
[25]
  TGI: > 100 µM
[26]
  TGI: > 100 µM
[27]
  TGI: > 100 µM
[28]
  TGI: > 100 µM
[29]
  TGI: > 100 µM
[30]
  TGI: > 100 µM
[31]
  TGI: > 100 µM
[32]
  TGI: > 100 µM
[33]
  TGI: > 100 µM
[34]
  TGI: > 100 µM
[35]
  TGI: > 100 µM
[36]
  TGI: > 100 µM
[37]
  TGI: > 100 µM
[38]
  TGI: > 100 µM
[39]
  TGI: > 100 µM
[40]
  TGI: > 100 µM
[41]
  TGI: > 100 µM
[42]
  TGI: > 100 µM
[43]
  TGI: > 100 µM
[44]
  TGI: > 100 µM
[45]
  TGI: > 100 µM
[46]
  TGI: > 100 µM
[47]
  TGI: > 100 µM
[48]
  TGI: > 100 µM
[49]
  TGI: > 100 µM
[50]
  TGI: > 100 µM
[51]
  TGI: > 100 µM
[52]
  TGI: > 100 µM
[53]
  TGI: > 100 µM
[54]
  TGI: > 100 µM
[55]
  TGI: > 100 µM
[56]
  TGI: > 100 µM
[57]
  TGI: > 100 µM
[58]
  TGI: > 100 µM
[59]
  TGI: > 100 µM
